Assay results as given in PMC5859250, “Contribution of transformation products towards the total herbicide toxicity to tropical marine organisms” (Scientific Reports, 2018).
Converted amounts (≈) assume the structure as drawn.

Columns and labels:
[1] = Herbicide degradation in outdoor tanks with coastal seawater and sediment (330 d); assay type: physicochemical; conditions: for Transformation product concentration: in tank of the parent herbicide, measured or estimated
From the text: Photosystem II herbicides/transformation product solutions were produced by adding herbicides to seawater within separate 120 l outdoor fibreglass tanks, in the presence of natural coastal sediments (further details can be found in Mercurio 2016)[36]. […] The tanks used were previously described in Mercurio et al.[8], with treatment water being partially shaded (70%) and exposed to a maximum of 700 µmol photons m^−2s^−1 over the course of the experiment. The application of a natural diurnal light regime and coastal sediment were previously shown to increase the rates of PSII herbicide degradation and represent more natural conditions than those used in standard degradation tests[8],[36]. Evaporation was minimised with loose-fitting clear acrylic lids and the water continuously circulated using Turbelle Nanostream pumps. Prior to every sampling period evaporation losses were replenished with equal volumes of MilliQ water. The average temperature was 25.7 °C with a range of 15.6–36.6 °C over the course of the study. Unfiltered coastal seawater and sediments were collected from the intertidal zone adjacent to the Australian Institute of Marine Science (19°16′S, 147°03′E), Cape Cleveland, QLD. The sediments were prepared one week prior to use by sieving (>2 mm removed) and thorough mixing. Each tank contained 5 kg of sediment. Physical and chemical information on the seawater and sediments used the treatments can be found in SOM Table 1.
The 20 tanks included replicates for control seawater (n = 4) and the PSII herbicides diuron (n = 4), atrazine (n = 3), simazine (n = 3), hexazinone (n = 3), and ametryn (n = 3). Herbicide treatments and replicates were randomized among tanks. The herbicides were purchased from Sigma Aldrich (>95% purity) and were introduced at ~1 mg l^−1 to enable direct chemical and toxicological testing of the herbicide transformation product mixtures without additional concentration steps. […] The same concentration was used in the controls. Sample collection, internal standard addition, and analytical techniques (HPLC-MS/MS using an AB/Sciex API5500Q mass spectrometer equipped with an electrospray interface and coupled to a Shimadzu Prominence HPLC system) were as previously reported[7],[36]. […] Individual replicates were analysed using HPLC/TripleTOF mass spectrometry for possible transformation products as described in Mercurio 2016[36]. Briefly, 0.2 µm-filtered samples were directly injected into an ABSciex API5600+ Triple TOF mass spectrometer (ABSciex, Concord, Ontario, Canada) equipped with an electrospray (TurboV) interface coupled to a Shimadzu Nexera HPLC system (Shimadzu Corp., Kyoto, Japan). Separation was achieved using a 4 micron 50 × 2.0 mm Phenomenex Synergi Fusion RP column (Phenomenex, Torrance, CA) run at 45 °C, and a flow rate of 0.4 mL min^−1 with a linear gradient starting at 8% B for 0.5 minutes, ramped to 100% B in 8 minutes then held at 100% for 2.0 minutes followed by equilibration at 8% B for 2.5 minutes (A = 1% methanol in HPLC grade water, B = 95% methanol in HPLC grade water, both containing 0.1% acetic acid). The mass spectrometer was operated in positive ion SWATH mode. Briefly this mode comprises a TOF scan of 50 millisecond duration followed by small segments of the mass range being transmitted through the quadrupole, fragmented in the collision cell and full TOF mass spectra taken of the transformation products. Data from these experiments was examined using the Masterview software (ABSciex).
Potential transformation products identified using TOF mass spectrometry and other potential transformation products identified from literature were then re-examined by HPLC/ triple quadrupole mass spectrometry using multiple reaction monitoring. Product ions used were as identified from QTOF data or from literature references and parameters such as collision energy optimised by repeated injections of samples for compounds detected. […]

Symbiodinium sp. = assay: Microalgal PAM fluorometry assay, inhibition of ∆F/Fm′ (24 h, 96-well plate); assay type: cell-based; conditions: 24 h; for IC20: read-out: IC20 parent (inhibition of ∆F/Fm′ by 20%); for IC50: read-out: IC50 parent (inhibition of ∆F/Fm′ by 50%); for IC10 parent (inhibition of ∆F/Fm′ by 10%): Symbiodinium sp., pure compound
From the text: (§1) Microalgae play a critical role in the marine food web and have been used in a number of sensitive assays for the assessment of toxicity of both herbicides and their transformation products[13],[16],[60]. High throughput 96 well plate designs allow for increased replication and a wide range of concentrations especially when paired with pulse amplitude modulation (PAM) fluorometry[50],[61]. PAM fluorometry measures chlorophyll fluorescence and can be used to calculate inhibitions of effective quantum yield ∆F/Fm′, which is proportional to reduced photosynthetic efficiency[62] and growth in microalgae[63] and can be plotted against toxicant concentrations to derive concentrations that inhibit ∆F/Fm′ by 10, 20 and 50% (IC10, IC20 and IC50). In the present study the green algae (Dunaliella sp.) and coral symbiont (Symbiodinium sp.) were exposed to herbicides and aged herbicide solutions for 24 h in a 96-well plate format. A Maxi-Imaging-PAM (I-PAM) (Walz, GmbH Germany) was used to measure inhibition of ∆F/Fm′ using settings provided previously[36] and below.
(§2) Symbiodinium cells were isolated from coral by air blasting branches of Acropora tenuis colonies collected (collected under the permit G10-33440.1) at 2–5 m depth in Nelly Bay, Magnetic Island, GBR[36]. Symbiodinium cells were inoculated into sterile IMK growing media, the culture purified, DNA extracted, and Clade C1 identified as published previously[64],[65]. Cultures were maintained at 26 °C, 60 µE PAR, 14:10 light:dark photoperiod inside environmental chambers (Steridium e500). The Dunaliella sp. (CS-353) (Chlorophyceae) was obtained from the CSIRO Collection of Living Microalgae (CCLM). The algae was subcultured and grown in F2 media. For the toxicology assays, an exponentially growing culture was employed[63] and density adjusted by hemocytometry under 10× magnification. Day 7 sub-cultures were used throughout the experiment.
(§3) Herbicide solutions were delivered into each treatment plate using a Perkin Elmer Janus liquid handling system. Each well of the black 96-well plates (Perkin Elmer) received 100 µl herbicide solution as well as 100 µl of algal suspension (added via multi-channel pipette) and the solution was gently mixed. […] Each plate included a 3 µg l^−1 positive diuron control (n = 4) to confirm consistent sensitivities among the replicate algal subcultures. Treatments positions were randomised across the plates in duplicate[50],[61],[66]. Symbiodinium culture plates were incubated over a 12:12 h light:dark cycle at 26 °C and 60–70 µmol photons m^−2 s^−1 and Dunaliella sp. Plates incubated at: 26 °C and 130 µmol photons m^−2 s^−1. Microalgae were exposed for 24 h prior to PAM measurements. Samples were subjected to the 50 µmol photons m^−2 s^−1 actinic light for 1 min prior to measurement in the Maxi-IPAM (Actinic light = 1, ML = 10, ML frequency = 8, gain = 2 and damping = 1).
(§4) The model was constrained by applying a lower limit of 0% inhibition and all curves were tested for normality of the residuals and a replicate test was applied to assess the goodness of fit[36]. The probability that ICX values generated by the logistic curves were statistically different between parent and aged herbicide solutions was tested by applying the F test in Graph Pad Prism v6. ICXs were considered different when p < 0.05. Where inhibition data could not be fitted to logistic curves, one-way analysis of variance (ANOVA) was performed to identify treatments which caused significant (p < 0.05) inhibition comparison with control treatments (NCSS v9, Utah, USA). The larval prawn experimental data was arcsine square root transformed prior to statistical analysis.

Dunaliella sp. = assay: as above; assay type: cell-based; conditions: 24 h; for IC20: read-out: IC20 parent (inhibition of ∆F/Fm′ by 20%); for IC50: read-out: IC50 parent (inhibition of ∆F/Fm′ by 50%); for IC10 parent (inhibition of ∆F/Fm′ by 10%): Dunaliella sp., pure compound
From the text: as §1, §2, §3, §4

[2] = tested on: prawn (Penaeus monodon) larvae; assay: Prawn larvae assay, metamorphosis of nauplii into protozoea (24 h static); assay type: in vivo; conditions: 24 h; for Effect on prawn larval metamorphosis (in words): concentration range tested; for LOEC, prawn larval metamorphosis / NOEC, prawn larval metamorphosis: vs solvent control, ANOVA p < 0.05, aged solutions as concentration of parent herbicide
Experimental: The giant tiger prawn (Penaeus monodon) can be found throughout the tropical Indo-Pacific region and can be obtained from aquaculture facilities and has a well-described life cycle. The aim of the larval prawn assay was to determine whether the herbicides and transformation products inhibit early naupliar development. Prawn eggs hatch into their first larval stage (nauplii), typically 12–15 h after spawning. During development the nauplii are lecithotrophic, and over the course of the next 36 h, nauplii pass through 6 sub-stages before metamorphosing into protozoae[67],[68].
Freshly hatched nauplii were harvested by light attraction over 30 min, and washed and aerated for 10 min with seawater, and transported to AIMS in Townsville, Queensland. […] The toxicity assays were performed in incubator shakers (set to 30 °C) under very low light and with gentle shaking to prevent individuals adhering to the side of experimental containers.
The larval stock was gently concentrated via reverse-gravity filtration to a higher density before dispensing 8–10 individuals per 20 ml glass scintillation vials. Additional positive control treatments in the form of 4 concentrations of copper II chloride solution (2 to 900 µg l^−1 Cu), were included for test validation. The static assay was terminated after 24 h and 10% seawater formalin was added as a preservative for later microscopy. Metamorphosis was considered successful when nauplii had developed into protozoea.
as §4

[3] = day 330, seawater with sediment, outdoor tanks

CSc1nc(N)nc(NC(C)C)n1 [Ametryn desethyl, ametryn desethyl]
Transformation product concentration ([1]; day 330): 23 µg/L

hexazinone hydroxy
Transformation product concentration ([1]; day 330): 5.4 µg/L

CCNc1nc(NC(C)C)[nH]c(=O)n1 [Ametryn hydroxy, hydroxy ametryn]
Transformation product concentration ([1]; day 330): 188 µg/L

CCNc1nc(O)nc(NCC)n1 [Simazine hydroxy, hydroxy simazine]
Transformation product concentration ([1]; day 330): 45 µg/L

CCNc1nc(NC(C)C)nc(SC)n1 [Ametryn]
IC20 (Symbiodinium sp.): 0.00082 µg/mL (≈ 0.00361 µM) | IC50 (Symbiodinium sp.): 0.0022 µg/mL (≈ 0.00968 µM) | IC10 parent (inhibition of ∆F/Fm′ by 10%) (Symbiodinium sp.): 0.47 (0.43–0.51) µg l^−1 | IC20 (Dunaliella sp.): 0.00123 µg/mL (≈ 0.00541 µM) | IC50 (Dunaliella sp.): 0.0034 µg/mL (≈ 0.015 µM) | IC10 parent (inhibition of ∆F/Fm′ by 10%) (Dunaliella sp.): 0.70 (0.65–0.74) µg l^−1 | Effect on prawn larval metamorphosis (in words) [2]: did not affect metamorphosis | LOEC, prawn larval metamorphosis [2]: >517 µg/L | NOEC, prawn larval metamorphosis [2]: 517 µg/L | % degradation ([1]; 330 d): 56% | Parent herbicide concentration [1, 3]: 189 µg/L

CCNc1nc(Cl)nc(NCC)n1 [Simazine]
IC20 (Symbiodinium sp.): 0.034 µg/mL (≈ 0.169 µM) | IC50 (Symbiodinium sp.): 0.084 µg/mL (≈ 0.417 µM) | IC10 parent (inhibition of ∆F/Fm′ by 10%) (Symbiodinium sp.): 21 (19–23) µg l^−1 | IC20 (Dunaliella sp.): 0.017 µg/mL (≈ 0.0843 µM) | IC50 (Dunaliella sp.): 0.087 µg/mL (≈ 0.431 µM) | % degradation [1, 3]: 63% | Parent herbicide concentration [1, 3]: 384 µg/L

CN(C)C(=O)Nc1ccc(Cl)c(Cl)c1 [Diuron]
IC20 (Symbiodinium sp.): 0.00068 µg/mL (≈ 0.00292 µM) | IC50 (Symbiodinium sp.): 0.0014 µg/mL (≈ 0.00601 µM) | IC10 parent (inhibition of ∆F/Fm′ by 10%) (Symbiodinium sp.): 0.64 (0.57–0.71) µg l^−1 | IC20 (Dunaliella sp.): 0.00174 µg/mL (≈ 0.00746 µM) | IC50 (Dunaliella sp.): 0.0044 µg/mL (≈ 0.0189 µM) | IC10 parent (inhibition of ∆F/Fm′ by 10%) (Dunaliella sp.): 1.02 (0.94–1.10) µg l^−1 | Effect on prawn larval metamorphosis (in words) [2]: did not affect metamorphosis | LOEC, prawn larval metamorphosis [2]: >874 µg/L | NOEC, prawn larval metamorphosis [2]: 874 µg/L | LOEC, prawn larval metamorphosis ([2]; listed as diuron): > 874 µg/L | % degradation [1, 3]: 93% | Parent herbicide concentration [1, 3]: 71 µg/L

[Cl][Cu][Cl] [Copper reference, copper II chloride, reference compound]
LOEC, prawn larval metamorphosis [2]: 91 µg/L | NOEC, prawn larval metamorphosis [2]: 11 µg/L

CNc1nc(=O)n(C2CCCCC2)c(=O)n1C [Hexazinone desmethyl, hexazinone desmethyl]
Transformation product concentration ([1]; day 330): 91 µg/L

CCNc1nc(N)nc(Cl)n1 [Desethyl simazine, desethyl simazine]
Transformation product concentration ([1]; day 330): 79 µg/L

CNC(=O)Nc1ccc(Cl)c(Cl)c1 [DCPMU, 3-(3,4-dichlorophenyl)-1-methylurea]
Transformation product concentration ([1]; day 330): 236 µg/L

CCNc1nc(NC(C)C)[nH]c(=O)n1 [Atrazine hydroxy, hydroxy atrazine]
Transformation product concentration ([1]; day 330): 30 µg/L

hexazinone oxy
Transformation product concentration ([1]; day 330): 26 µg/L

CCNc1nc(N)nc(SC)n1 [Ametryn desisopropyl, ametryn desisopropyl]
Transformation product concentration ([1]; day 330): BDL

NC(=O)Nc1ccc(Cl)c(Cl)c1 [DCPU, 3,4-dichlorophenylurea]
Transformation product concentration ([1]; day 330): 85 µg/L

CCNc1nc(Cl)nc(NC(C)C)n1 [Atrazine]
IC20 (Symbiodinium sp.): 0.014 µg/mL (≈ 0.0649 µM) | IC50 (Symbiodinium sp.): 0.0345 µg/mL (≈ 0.16 µM) | IC10 parent (inhibition of ∆F/Fm′ by 10%) (Symbiodinium sp.): 8.6 (8.0–9.3) µg l^−1 | IC20 (Dunaliella sp.): 0.018 µg/mL (≈ 0.0835 µM) | IC50 (Dunaliella sp.): 0.035 µg/mL (≈ 0.162 µM) | IC10 parent (inhibition of ∆F/Fm′ by 10%) (Dunaliella sp.): 12 (11–14) µg l^−1 | LOEC, prawn larval metamorphosis [2]: 899 µg/L | NOEC, prawn larval metamorphosis [2]: 197 µg/L | % degradation [1, 3]: 64% | Parent herbicide concentration [1, 3]: 278 µg/L

CN(C)c1nc(=O)n(C2CCCCC2)c(=O)n1C [Hexazinone]
IC20 (Symbiodinium sp.): 0.012 µg/mL (≈ 0.0476 µM) | IC50 (Symbiodinium sp.): 0.0457 µg/mL (≈ 0.181 µM) | IC10 parent (inhibition of ∆F/Fm′ by 10%) (Symbiodinium sp.): 5.3 (4.5–6.7) µg l^−1 | IC20 (Dunaliella sp.): 0.01 µg/mL (≈ 0.0396 µM) | IC50 (Dunaliella sp.): 0.038 µg/mL (≈ 0.151 µM) | LOEC, prawn larval metamorphosis [2]: 1026 µg/L | NOEC, prawn larval metamorphosis [2]: 242 µg/L | % degradation ([1]; 330 d): 58% | Parent herbicide concentration [1, 3]: 366 µg/L

simazine amine
Transformation product concentration ([1]; day 330): 31 µg/L
